From patent US12233129B2, “Methods and compositions for the treatment of cancer” (priority 2019, dated 2025)

Columns and labels:
Experiment in all cases: Annexin V staining and flow cytometry (positive control)
Format in all cases: cell-based, human
Conditions in all cases: 100 nM, 24 hours
SW48 = system: SW48
Description: (§1) Apoptosis in cells was assessed using an Annexin V Apoptosis Detection Kit (BD Pharmingen, San Jose, CA, USA) analyzed by using a BD Accuri C6 flow cytometer according to the manufacturer's instructions.
(§2) HCT-116 or SW48 were transfected with GFP empty vector or GFP-UBXN2A using the Neon electrotransfection system (HCT-116 and SW48) or lipofectamin 2000 (CCD-118-Co), achieving around 80% transfection efficiency. Apoptosis in cells was assessed using an Annexin V Apoptosis Detection Kit (BD Pharmingen, San Jose, CA) analyzed by a BD Accuri C6 flow cytometer according to the manufacturer's instructions. In each individual experiment, GFP expressing cells were first gated and then plotted versus Annexin V positive cells. 10,000 gated events were collected per sample. An apoptotic inducer, staurosporine (Sigma), was used as a positive control in all experiments.
(§3) FIG. 12: Annexin V staining and flow cytometry is a valid assay for measurement of early apoptosis. Un-transfected CCD-18Co, HCT-116, and SW48 cells were incubated with vehicle or staurosporine, a well-known inducer of apoptosis in a wide range of cell lines, for 24 hours. Subsequently, cells were stained with BD Biosciences Cy5 Annexin V and read on an Accuri C6 flow cytometer. Panel A. The histograms show a comparison of the distribution of Annexin V positive cells in un-transfected CCD-18Co, HCT-116 and SW48 cells (no gating). […] Panel C-D: We conducted a set of IP experiments to further confirm UBXN2A can only bind to the SBD domain and not the ATP domain. HCT-116 cells were transiently transfected with SBD domain or ATP domain of mot-2. After 36 hours, cell lysates were prepared followed by immunoprecipitation using anti-UBXN2A immobilized on magnetic protein G beads. Immunoprecipitation experiments verified UBXN2A binds to the SBD domain of mot-2 (amino acid residue 432-679) in HCT-116 cells and not the ATP domain (amino acid residue 1-437). This set of immunoprecipitation experiments verified results achieved in Y2H experiments. […]

HCT-116 = system: HCT-116
Description: as §1, §2, §3

CCD-18Co = system: CCD-18Co
Description: as §1, §2, §3

Measured: apoptosis (Annexin V positive cells)

CN[C@@H]1C[C@H]2O[C@@](C)([C@@H]1OC)n1c3ccccc3c3c4c(c5c6ccccc6n2c5c31)C(=O)NC4 [staurosporine]
induce significant apoptosis: all assays above
